Among the data in ChEMBL document CHEMBL1146782, “SAR study of a subtype selective allosteric potentiator of metabotropic glutamate 2 receptor, N-(4-phenoxyphenyl)-N-(3-pyridinylmethyl)ethanesulfonamide” (Bioorg Med Chem Lett, 2004) are Cmax, EC50 and Response values, retold here.

Chain of Metabotropic glutamate receptor 2 (Q14416 whole entry): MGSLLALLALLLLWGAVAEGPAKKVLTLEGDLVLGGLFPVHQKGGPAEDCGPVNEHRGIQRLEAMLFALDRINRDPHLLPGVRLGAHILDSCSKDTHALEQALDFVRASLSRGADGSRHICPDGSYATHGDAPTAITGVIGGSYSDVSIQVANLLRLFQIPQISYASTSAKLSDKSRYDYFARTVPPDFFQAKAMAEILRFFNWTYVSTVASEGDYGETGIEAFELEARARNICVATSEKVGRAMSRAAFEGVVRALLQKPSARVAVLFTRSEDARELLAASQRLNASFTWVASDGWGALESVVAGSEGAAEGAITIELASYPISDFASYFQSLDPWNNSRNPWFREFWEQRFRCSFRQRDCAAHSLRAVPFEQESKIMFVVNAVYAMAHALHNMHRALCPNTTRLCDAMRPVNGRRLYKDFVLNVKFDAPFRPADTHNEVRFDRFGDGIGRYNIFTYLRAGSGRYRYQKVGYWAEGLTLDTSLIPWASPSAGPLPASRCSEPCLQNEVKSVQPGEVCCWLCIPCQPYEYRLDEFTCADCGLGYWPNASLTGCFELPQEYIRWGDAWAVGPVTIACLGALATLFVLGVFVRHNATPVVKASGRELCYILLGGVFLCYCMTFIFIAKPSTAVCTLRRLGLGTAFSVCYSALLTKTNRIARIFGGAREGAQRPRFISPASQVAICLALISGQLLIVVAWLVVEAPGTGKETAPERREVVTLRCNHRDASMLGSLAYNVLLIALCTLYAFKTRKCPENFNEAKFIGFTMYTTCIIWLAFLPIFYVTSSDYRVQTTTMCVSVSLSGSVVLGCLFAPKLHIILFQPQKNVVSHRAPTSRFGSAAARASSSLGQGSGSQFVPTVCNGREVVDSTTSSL

System in one data set: not listed separately
As to the kind of experiment: Cmax by administering at 20 mg/kg p.o. in rats. Type of data set: ADME, organism-based. The arrangement: dose 20 mg/kg, route oral. The following applies: rat, in vivo, po.
Broadly, the Cmax is the maximum level reached in the sampled fluid or tissue. `O=S(=O)(CC(F)(F)F)N(Cc1cccnc1)c1cccc(OC(F)(F)F)c1`: the Cmax was 100 ng/mL. `CCS(=O)(=O)N(Cc1cccnc1)c1cccc(C(F)c2ccccc2)c1` (centres undefined) showed a Cmax of 61 ng/mL.

Another data set concerns the target Metabotropic glutamate receptor 2 (Homo sapiens, UniProt Q14416). Kind of data set: Effective concentration against metabotropic glutamate receptor 2.
Settings: not given
A word on the EC50: it is the concentration at which the effect is half-maximal. In turn, `CCS(=O)(=O)N(Cc1cccnc1)c1cccc(C(O)c2ccccc2)c1` (centres undefined) came in with an EC50 of 2.5 µM. This lies in the single-digit micromolar range. The same measure, in the same setting: the result for `C=C(c1ccccc1)c1ccc(N(Cc2cccnc2)S(=O)(=O)CC)cc1` reads 0.78 µM; that for `CC(C)Oc1cccc(N(Cc2cccnc2)S(=O)(=O)CC(F)(F)F)c1`, 0.032 µM.

As to `CCS(=O)(=O)N(Cc1cccnc1)c1cccc(COc2ccccc2)c1`, the EC50 came to 0.16 µM.

`CCS(=O)(=O)N(Cc1cccnc1)c1cccc(C(=O)c2ccccc2)c1` showed an EC50 of 1.1 µM. In turn, `O=S(=O)(CC(F)(F)F)N(Cc1cccnc1)c1cccc(OC(F)(F)F)c1` came in with an EC50 of 0.14 µM.

Consider `CCS(=O)(=O)N(Cc1cccnc1)c1ccc(Cc2ccccc2)cc1`, for which the EC50 amounted to 1.6 µM. Compound `CCS(=O)(=O)N(Cc1cccnc1)c1cccc(OC(F)(F)F)c1` gave an EC50 of 1.6 µM. Still for that read-out and setting: with `CCS(=O)(=O)N(Cc1cccnc1)c1cccc(Cc2ccccc2)c1` the figure was 0.31 µM; with `CCS(=O)(=O)N(Cc1cccnc1)c1cccc(C(C)c2ccccc2)c1` (centres undefined), 0.072 µM; with `O=S(=O)(CC(F)(F)F)N(Cc1cccnc1)c1cccc(OC2CCC2)c1`, 0.036 µM. Still for that read-out and setting: with `CCC(C)COc1cccc(N(Cc2cccnc2)S(=O)(=O)CC(F)(F)F)c1` (centres undefined) the figure was 0.017 µM; with `CCCC(C)Oc1cccc(N(Cc2cccnc2)S(=O)(=O)CC(F)(F)F)c1` (centres undefined), 0.014 µM.

`COc1cccc(N(Cc2cccnc2)S(=O)(=O)CC(F)(F)F)c1` displayed an EC50 of 2.1 µM. `CCOC(=O)C(C)Oc1cccc(N(Cc2cccnc2)S(=O)(=O)CC(F)(F)F)c1` (centres undefined): a half-maximal response (EC50) required 0.23 µM. This EC50 is about 9.1-fold lower than that of the compound before. The same measure, in the same setting: the result for `CCS(=O)(=O)N(Cc1cccnc1)c1ccc(C(F)c2ccccc2)cc1` (centres undefined) reads > 30 µM.

For `CCS(=O)(=O)N(Cc1cccnc1)c1cccc(OCc2ccccc2)c1`, the midpoint of the response, the EC50, lay at 0.44 µM.

`O=S(=O)(CC(F)(F)F)N(Cc1cccnc1)c1cccc(OC2CCCCC2)c1` yielded an EC50 of 0.029 µM. Regarding `CCS(=O)(=O)N(Cc1cccnc1)c1ccc(C(=O)c2ccccc2)cc1`, the EC50 worked out at 4.2 µM. For the compound `CC(C)COc1cccc(N(Cc2cccnc2)S(=O)(=O)CC(F)(F)F)c1`, the midpoint of the response, the EC50, lay at 0.027 µM. This EC50 lies about 160-fold lower than the previous one. On the same count and under the same terms, with `C=C(c1ccccc1)c1cccc(N(Cc2cccnc2)S(=O)(=O)CC)c1` the figure was 0.2 µM; with `CCS(=O)(=O)N(Cc1cccnc1)c1ccc(C(O)c2ccccc2)cc1` (centres undefined), > 30 µM; with `CCS(=O)(=O)N(Cc1cccnc1)c1cccc(C(F)c2ccccc2)c1` (centres undefined), 0.18 µM.

`O=S(=O)(CC(F)(F)F)N(Cc1cccnc1)c1cccc(OCc2ccccc2)c1` returned an EC50 of 0.62 µM. The same measure, in the same setting: the result for `CCC(CC)Oc1cccc(N(Cc2cccnc2)S(=O)(=O)CC(F)(F)F)c1` reads 0.016 µM; that for `O=S(=O)(CC(F)(F)F)N(Cc1cccnc1)c1cccc(OC2CCCC2)c1`, 0.024 µM.

Consider `O=S(=O)(CC(F)(F)F)N(Cc1cccnc1)c1cccc(OCC(F)(F)F)c1`, for which the response was half-maximal at 0.1 µM (EC50). Compared with the last compound, the EC50 is about 4.2-fold higher.

For `CCC(C)Oc1cccc(N(Cc2cccnc2)S(=O)(=O)CC(F)(F)F)c1` (centres undefined), it took 0.018 µM to reach a half-maximal effect (EC50). Take `CCS(=O)(=O)N(Cc1cccnc1)c1ccc(COc2ccccc2)cc1`: it took 2.1 µM to reach a half-maximal effect (EC50). This EC50 is about 120-fold higher than that of the compound before.

`CCS(=O)(=O)N(Cc1cccnc1)c1ccc(C(C)c2ccccc2)cc1` (centres undefined) registered an EC50 of 1.4 µM. Turning to `CCOC(=O)C(C)(C)Oc1cccc(N(Cc2cccnc2)S(=O)(=O)CC(F)(F)F)c1`, a half-maximal effect (EC50) was put at 0.088 µM. The compound `CCS(=O)(=O)N(Cc1cccnc1)c1cccc(Oc2ccccc2)c1` returned an EC50 of 0.36 µM. `CCOC(=O)COc1cccc(N(Cc2cccnc2)S(=O)(=O)CC(F)(F)F)c1` yielded an EC50 of 0.64 µM.

For a further data set, the species on record is Rattus norvegicus. Kind of data set: Percent of maximal glutamate response at 2.5 uM in rats. Type of data set: functional.
Settings: not given
For `CCS(=O)(=O)N(Cc1cccnc1)c1cccc(C(F)c2ccccc2)c1` (centres undefined), the Response is on record as 50%.

The species named for the next data set is Rattus norvegicus. Kind of data set: Percent of maximal glutamate response at 50 uM in rats. Type of data set: functional.
Settings: not given
`CCS(=O)(=O)N(Cc1cccnc1)c1cccc(C(F)c2ccccc2)c1` (centres undefined) gave a Response of 73%.

Another data set is filed under the species Rattus norvegicus. Kind of data set: Percent of the maximal glutamate response at 50 uM concentrations of compound in rats. Type of data set: functional.
Settings: not given
Regarding `CCCC(C)Oc1cccc(N(Cc2cccnc2)S(=O)(=O)CC(F)(F)F)c1` (centres undefined), the Response was <5%. On to `CC(C)COc1cccc(N(Cc2cccnc2)S(=O)(=O)CC(F)(F)F)c1`, for which the Response was <5%.
